In patent US8765776B2, “Antihypertensive pharmaceutical composition” (Boryung Pharmaceutical Co., Ltd., priority 2011, dated 2014):
Structures can show the parent of a compound that is named as a salt.

Columns and labels:
[1] = tested on: spontaneously hypertensive rats (SHR); test: 4-week repeated oral administration antihypertensive test in spontaneously hypertensive rats (non-invasive tail-cuff CODA-6); assay type: in vivo, rat; conditions: 4 weeks; for Antihypertensive degree with consecutive 4-week administration of drugs, as compared to blood pressure prior to administration (Mean): n=8, F1 = Fimasartan potassium trihydrate 3 mg/kg, F2 = 10 mg/kg, L = Losartan potassium 10 mg/kg, V = Valsartan 10 mg/kg, A1 = Amlodipine besylate 0.5 mg/kg, A2 = 1.6 mg/kg
Source text: This study is intended to examine antihypertensive action of individual drugs. For this purpose, test drugs, i.e., Fimasartan potassium trihydrate, Losartan potassium salt, Valsartan, Amlodipine besylate, a combination of Fimasartan potassium trihydrate with Amlodipine besylate, a combination of Losartan potassium salt with Amlodipine besylate, and a combination of Valsartan with Amlodipine besylate were repeatedly and orally administered for 4 weeks to rats with essential hypertension. […] In this manner, the antihypertensive action was compared and evaluated between the individual drugs.
8-week old male spontaneously hypertensive rats (SHR), weighing 230 to 250 g, were purchased from Charles River Japan (CRJ). The animals were used in the test, after being subjected to an acclimation period until the animals were 18 to 19-week old (340 to 380 g) to reach a mean blood pressure of 160 to 170 mmHg. Animals with a good condition were selected by minute observation over the acclimation period prior to the test, and divided into individual test groups, each consisting of 8 animals (n=8). Only the selected animals, from which a rise in blood pressure was confirmed using a non-invasive blood pressure monitoring system (CODA-6), were assigned to the test group.
Low, medium and high doses of the drugs according to individual drugs were established in the preliminary test. […] All the doses referred to those used in the already performed test. Doses and drug-administered groups used in the final main test are as follows.
As an ARB compound, Losartan potassium salt, Valsartan and Fimasartan potassium trihydrate were respectively purchased and used from Zhejiang Huahai Pharmaceutical Co., Ltd. 10 mg/kg of Losartan potassium salt was taken as an L group, and 10 mg/kg of Valsartan was taken as a V group. With regard to Fimasartan potassium trihydrate, 3 mg/kg was taken as an F1 group, and 10 mg/kg was taken as an F2 group.
As a calcium channel blocker, Amlodipine besylate (home-made by the method described in U.S. Pat. No. 4,572,909) was used. 0.5 mg/kg of Amlodipine besylate was taken as an A 1 group, and a dose of 1.6 mg/kg was taken as an A2 group. The test materials and the comparative drugs were each suspended in 0.5% carboxymethylcellulose sodium salt (CMC—Na, Sigma) prior to using. As a control group, 0.5% CMC alone was administered.
{circumflex over (3)} Test Method • Administration: Upon carrying out the administration, the drug preparation was heated to a suitable temperature of 35° in a water bath, followed by forced oral administration of 5 mL/kg via a stomach sonde. • Measurement of blood pressure: Blood pressure of rats was measured as follows. Rats were restrained and placed in a heating device which was then heated to a temperature of about 40° (based on the temperature of 37° in a restraining cage) over 13 minutes, such that the tail blood vessels were engorged, and the blood pressure of rats was measured using CODA-6 equipment that monitors a blood pressure by means of the software of the main body through a pair of cuffs attached to the tail. The non-invasive blood pressure measuring method via CODA-6 (Kent Scientific Corporation) enables a long-term blood pressure measuring test that should involve repeated administration of test materials, which is not feasible with a direct blood pressure measuring method through arterial cannulation, such as conventionally used physiograph or power lab.
Changes in blood pressure were confirmed with focusing on changes in mean arterial pressure (MAP), and changes in diastolic and systolic blood pressure, heart rate, and body weight were used as references for other changes in the experimental results.

[2] = tested on: patients with mild to moderate essential hypertension; conditions: Week 12 of drug administration, dose 60 mg to 120 mg; cited from earlier work

Structure (SMILES) | Antihypertensive degree with consecutive 4-week administration of drugs, as compared to blood pressure prior to administration (Mean) [1] | also measured
CCCCc1nc(Cl)c(CO)n1Cc1ccc(-c2ccccc2-c2nn[nH]n2)cc1 [Comparative Example 3, Losartan potassium salt] | −20 mmHg | –
CCCCc1nc(C)c(CC(=S)N(C)C)c(=O)n1Cc1ccc(-c2ccccc2-c2nnn[nH]2)cc1 [Comparative Example 1, Fimasartan potassium trihydrate] | – | Antihypertensive effect compared to Comparative Example 3 and Comparative Example 4 ([1]; 3 mg/kg Fimasartan potassium trihydrate vs 10 mg/kg Losartan potassium or Valsartan): superior antihypertensive effect; Antihypertensive degree with consecutive 4-week administration of drugs, as compared to blood pressure prior to administration (Mean) ([1]; potassium trihydrate): −35 mmHg
CCCCc1nc(Cl)c(CO)n1Cc1ccc(-c2ccccc2-c2nn[nH]n2)cc1 [Losartan] | – | Change in diastolic blood pressure (DBP) in the sitting position relative to baseline [2]: −8.56±7.72 mmHg
CCCCc1nc(C)c(CC(=S)N(C)C)c(=O)n1Cc1ccc(-c2ccccc2-c2nnn[nH]2)cc1 [Comparative Example 2, Fimasartan potassium trihydrate] | – | Antihypertensive degree with consecutive 4-week administration of drugs, as compared to blood pressure prior to administration (Mean) ([1]; potassium trihydrate): −50 mmHg
CCCCC(=O)N(Cc1ccc(-c2ccccc2-c2nnn[nH]2)cc1)[C@H](C(=O)O)C(C)C [Comparative Example 4, Valsartan] | −32 mmHg | –
CCOC(=O)C1=C(COCCN)NC(C)=C(C(=O)OC)C1c1ccccc1Cl (single isomer, unassigned) [Comparative Example 5, Amlodipine besylate] | −13 mmHg | –
CCOC(=O)C1=C(COCCN)NC(C)=C(C(=O)OC)C1c1ccccc1Cl (single isomer, unassigned) [Comparative Example 6, Amlodipine besylate] | −20 mmHg | –
